Experiments:
[1] = Solubility in 96° ethanol at 25° C.; type: physicochemical
Description: The compound of formula (II) also has the advantage of having a good solubility in the usual dye carriers.

Salmonella strains = assay: Ames test (mutagenicity); type: biochemical
[2] = Dye fastness on hair, fastness to washing/shampooing; set-up: species or system human; conditions: compared to nitro benzene dyes

Nc1ccc(N=Nc2ccc(N(CCO)CCO)cc2)cc1 [(I)]
solubility [1]: 1.3% | mutagenicity (Ames test) (Salmonella strains; five strains of the Salmonella type, in the presence of a S-9 Mix microsomal activator): mutagenic to five strains of the Salmonella type | stability to washing [2]: improved stability to washing

Cc1cc(N(CCO)CCO)ccc1N=Nc1ccc(N)cc1 [(II)]
solubility [1]: 5.3% | non-mutagenicity (Salmonella strains; strains and activation not stated for this compound): non-mutagenicity has been demonstrated

— patent publication US4886517A, “Dyeing composition for human hair containing an azo dye” (L'Oreal, priority 1985, dated 1989)
